Measured values: the supplement of paper PMC10307832

What was measured:
Assay in all cases: relative viability (nuclei count vs DMSO), 5 days (fraction); higher = more cells survive
EMC-BAC-2 = system: EMC-BAC-2
In short: (§1)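 Lung cancer cell lines, seeded in 1536-well plates, were treated the following day by pin tool with a single drug or with five library-drug doses (not always all listed) in √10 steps on top of a fixed anchor-drug dose. Cells were fixed and nuclei stained in one step after 5 days, and nuclei were counted. Relative viability is the nuclei count for treated wells divided by that for vehicle wells, reported as medians of duplicate plates.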

COR-L23 = system: COR-L23
In short: as §1

NCI-H1792 = system: NCI-H1792
In short: as §1

A-427 = system: A-427
In short: as §1

NCI-H1993 = system: NCI-H1993
In short: as §1

SK-LU-1 = system: SK-LU-1
In short: as §1

NCI-H2228 = system: NCI-H2228
In short: as §1

LXF-289 = system: LXF-289
In short: as §1

NCI-H1944 = system: NCI-H1944
In short: as §1

ABC-1 = system: ABC-1
In short: as §1

LK-2 = system: LK-2
In short: as §1

NCI-H2009 = system: NCI-H2009
In short: as §1

SK-MES-1 = system: SK-MES-1
In short: as §1

NCI-H1793 = system: NCI-H1793
In short: as §1

HARA = system: HARA
In short: as §1

NCI-H596 = system: NCI-H596
In short: as §1

PC-3 [JPC-3] = system: PC-3 [JPC-3]
In short: as §1

SW 1573 = system: SW 1573
In short: as §1

NCI-H727 = system: NCI-H727
In short: as §1

LU99A = system: LU99A
In short: as §1

HOP-62 = system: HOP-62
In short: as §1

NCI-H3122 = system: NCI-H3122
In short: as §1

NCI-H2170 = system: NCI-H2170
In short: as §1

CC(C)Oc1cc(Nc2nc(N[C@@H](C)c3ccc(F)cn3)ncc2Cl)n[nH]1 [AZ23] + CS(=O)(=O)CCNCc1ccc(-c2ccc3ncnc(Nc4ccc(OCc5cccc(F)c5)c(Cl)c4)c3c2)o1 [Lapatinib] (partner 2 µM)
relative viability (EMC-BAC-2; first compound 0.01 µM): 0.968
relative viability (EMC-BAC-2; first compound 0.03162 µM): 0.981
relative viability (EMC-BAC-2; first compound 0.3162 µM): 0.922
relative viability (COR-L23; first compound 0.01 µM): 1.12
relative viability (COR-L23; first compound 0.03162 µM): 1.1
relative viability (COR-L23; first compound 0.3162 µM): 1
relative viability (NCI-H1792; first compound 0.01 µM): 1.17
relative viability (NCI-H1792; first compound 0.03162 µM): 1.13
relative viability (NCI-H1792; first compound 0.3162 µM): 0.995
relative viability (A-427; first compound 0.01 µM): 1.24
relative viability (A-427; first compound 0.03162 µM): 1.02
relative viability (A-427; first compound 0.3162 µM): 1.03
relative viability (NCI-H1993; first compound 0.01 µM): 0.808
relative viability (NCI-H1993; first compound 0.3162 µM): 0.946
relative viability (SK-LU-1; first compound 0.01 µM): 0.929
relative viability (SK-LU-1; first compound 0.03162 µM): 1.06
relative viability (SK-LU-1; first compound 0.3162 µM): 1.06
relative viability (NCI-H2228; first compound 0.01 µM): 1.51
relative viability (NCI-H2228; first compound 0.03162 µM): 0.867
relative viability (NCI-H2228; first compound 0.3162 µM): 0.992
relative viability (LXF-289; first compound 0.01 µM): 1.01
relative viability (LXF-289; first compound 0.03162 µM): 0.932
relative viability (LXF-289; first compound 0.3162 µM): 0.884
relative viability (NCI-H1944; first compound 0.01 µM): 0.789
relative viability (NCI-H1944; first compound 0.03162 µM): 0.88
relative viability (NCI-H1944; first compound 0.3162 µM): 0.903
relative viability (ABC-1; first compound 0.01 µM): 1.15
relative viability (ABC-1; first compound 0.03162 µM): 1.24
relative viability (ABC-1; first compound 0.3162 µM): 1.17
relative viability (LK-2; first compound 0.01 µM): 0.958
relative viability (LK-2; first compound 0.03162 µM): 1.3
relative viability (LK-2; first compound 0.3162 µM): 0.685
relative viability (NCI-H2009; first compound 0.01 µM): 0.97
relative viability (NCI-H2009; first compound 0.03162 µM): 0.997
relative viability (NCI-H2009; first compound 0.3162 µM): 0.918
relative viability (SK-MES-1; first compound 0.01 µM): 0.492
relative viability (SK-MES-1; first compound 0.03162 µM): 0.484
relative viability (SK-MES-1; first compound 0.3162 µM): 0.491
relative viability (NCI-H1793; first compound 0.01 µM): 0.367
relative viability (NCI-H1793; first compound 0.03162 µM): 0.804
relative viability (NCI-H1793; first compound 0.3162 µM): 0.486
relative viability (HARA; first compound 0.01 µM): 0.862
relative viability (HARA; first compound 0.03162 µM): 0.708
relative viability (HARA; first compound 0.3162 µM): 0.584
relative viability (NCI-H596; first compound 0.01 µM): 1.03
relative viability (NCI-H596; first compound 0.03162 µM): 1.11
relative viability (NCI-H596; first compound 0.3162 µM): 1.03
relative viability (PC-3 [JPC-3]; first compound 0.01 µM): 0.464
relative viability (PC-3 [JPC-3]; first compound 0.03162 µM): 0.489
relative viability (PC-3 [JPC-3]; first compound 0.3162 µM): 0.454
relative viability (SW 1573; first compound 0.01 µM): 1.21
relative viability (SW 1573; first compound 0.03162 µM): 1.11
relative viability (SW 1573; first compound 0.3162 µM): 0.939
relative viability (NCI-H727; first compound 0.01 µM): 0.788
relative viability (NCI-H727; first compound 0.03162 µM): 0.945
relative viability (NCI-H727; first compound 0.3162 µM): 0.751
relative viability (LU99A; first compound 0.01 µM): 1.2
relative viability (LU99A; first compound 0.03162 µM): 1.08
relative viability (LU99A; first compound 0.3162 µM): 1.09
relative viability (HOP-62; first compound 0.01 µM): 1.14
relative viability (HOP-62; first compound 0.03162 µM): 0.985
relative viability (HOP-62; first compound 0.3162 µM): 0.966
relative viability (NCI-H3122; first compound 0.01 µM): 1.08
relative viability (NCI-H3122; first compound 0.03162 µM): 1.01
relative viability (NCI-H3122; first compound 0.3162 µM): 1.04
relative viability (NCI-H2170; first compound 0.01 µM): 0.267
relative viability (NCI-H2170; first compound 0.03162 µM): 0.283
relative viability (NCI-H2170; first compound 0.3162 µM): 0.27

CC(C)Oc1cc(Nc2nc(N[C@@H](C)c3ccc(F)cn3)ncc2Cl)n[nH]1 [AZ23] + CS(=O)(=O)N1CCN(Cc2cc3nc(-c4cccc5[nH]ncc45)nc(N4CCOCC4)c3s2)CC1 [Pictilisib] (partner 1 µM)
relative viability (EMC-BAC-2; first compound 0.01 µM): 0.535
relative viability (EMC-BAC-2; first compound 0.03162 µM): 0.576
relative viability (EMC-BAC-2; first compound 0.3162 µM): 0.51
relative viability (COR-L23; first compound 0.01 µM): 0.587
relative viability (COR-L23; first compound 0.03162 µM): 0.947
relative viability (COR-L23; first compound 0.3162 µM): 0.862
relative viability (NCI-H1792; first compound 0.01 µM): 0.248
relative viability (NCI-H1792; first compound 0.03162 µM): 0.291
relative viability (NCI-H1792; first compound 0.3162 µM): 0.302
relative viability (A-427; first compound 0.01 µM): 0.819
relative viability (A-427; first compound 0.03162 µM): 0.716
relative viability (A-427; first compound 0.3162 µM): 0.62
relative viability (NCI-H1993; first compound 0.01 µM): 0.755
relative viability (NCI-H1993; first compound 0.3162 µM): 0.869
relative viability (SK-LU-1; first compound 0.01 µM): 0.408
relative viability (SK-LU-1; first compound 0.03162 µM): 0.599
relative viability (SK-LU-1; first compound 0.3162 µM): 0.553
relative viability (NCI-H2228; first compound 0.01 µM): 0.523
relative viability (NCI-H2228; first compound 0.03162 µM): 0.346
relative viability (NCI-H2228; first compound 0.3162 µM): 0.394
relative viability (LXF-289; first compound 0.01 µM): 0.969
relative viability (LXF-289; first compound 0.03162 µM): 0.818
relative viability (LXF-289; first compound 0.3162 µM): 0.788
relative viability (NCI-H1944; first compound 0.01 µM): 0.342
relative viability (NCI-H1944; first compound 0.03162 µM): 0.353
relative viability (NCI-H1944; first compound 0.3162 µM): 0.319
relative viability (ABC-1; first compound 0.01 µM): 0.634
relative viability (ABC-1; first compound 0.03162 µM): 0.909
relative viability (ABC-1; first compound 0.3162 µM): 0.841
relative viability (LK-2; first compound 0.03162 µM): 0.499
relative viability (LK-2; first compound 0.3162 µM): 0.59
relative viability (NCI-H2009; first compound 0.01 µM): 0.943
relative viability (NCI-H2009; first compound 0.03162 µM): 0.88
relative viability (NCI-H2009; first compound 0.3162 µM): 0.854
relative viability (SK-MES-1; first compound 0.01 µM): 0.329
relative viability (SK-MES-1; first compound 0.03162 µM): 0.358
relative viability (SK-MES-1; first compound 0.3162 µM): 0.387
relative viability (NCI-H1793; first compound 0.01 µM): 0.318
relative viability (NCI-H1793; first compound 0.03162 µM): 0.369
relative viability (NCI-H1793; first compound 0.3162 µM): 0.371
relative viability (HARA; first compound 0.01 µM): 0.421
relative viability (HARA; first compound 0.03162 µM): 0.373
relative viability (HARA; first compound 0.3162 µM): 0.282
relative viability (NCI-H596; first compound 0.01 µM): 0.359
relative viability (NCI-H596; first compound 0.03162 µM): 0.342
relative viability (NCI-H596; first compound 0.3162 µM): 0.397
relative viability (PC-3 [JPC-3]; first compound 0.01 µM): 0.807
relative viability (PC-3 [JPC-3]; first compound 0.03162 µM): 0.833
relative viability (PC-3 [JPC-3]; first compound 0.3162 µM): 0.807
relative viability (SW 1573; first compound 0.01 µM): 0.674
relative viability (SW 1573; first compound 0.03162 µM): 0.606
relative viability (SW 1573; first compound 0.3162 µM): 0.455
relative viability (NCI-H727; first compound 0.01 µM): 0.268
relative viability (NCI-H727; first compound 0.03162 µM): 0.422
relative viability (NCI-H727; first compound 0.3162 µM): 0.329
relative viability (LU99A; first compound 0.01 µM): 0.292
relative viability (LU99A; first compound 0.03162 µM): 0.386
relative viability (LU99A; first compound 0.3162 µM): 0.294
relative viability (HOP-62; first compound 0.01 µM): 0.635
relative viability (HOP-62; first compound 0.03162 µM): 1.11
relative viability (HOP-62; first compound 0.3162 µM): 0.874
relative viability (NCI-H3122; first compound 0.01 µM): 0.658
relative viability (NCI-H3122; first compound 0.03162 µM): 0.598
relative viability (NCI-H3122; first compound 0.3162 µM): 0.579
relative viability (NCI-H2170; first compound 0.01 µM): 0.288
relative viability (NCI-H2170; first compound 0.03162 µM): 0.325
relative viability (NCI-H2170; first compound 0.3162 µM): 0.304
